Results reported in paper PMC8225045, “Chemical Synthesis and Structure-Activity Relationship Study Yield Desotamide a Analogues with Improved Antibacterial Activity” (Marine Drugs, 2021).
≈ marks a conversion by molar mass, not a printed value. Read-outs that look alike come from different tables or passages of the source. Non-standard residues stand in square brackets, D forms with d. Residues, ends and D or L forms follow the SMILES beside them. aIle = CC[C@@H](C)[C@H](N)C(=O)O; dOrn = NCCC[C@@H](N)C(=O)O

Legend:
MRSA 16162 = assay: microbe, parasite or virus in culture
Procedure: (§1) All the synthesized cyclopeptides (7–19) and the desotamide A (1) isolated from S. scopuliridis SCSIO ZJ46 were evaluated for antibacterial activities against a series of Gram-positive pathogens including […] Staphylococcus aureus ATCC29213, Bacillus subtilis BS01, Micrococcus luteus ML01, Enterococcus faecalis ATCC29212; 3 drug-resistant poultry pathogens Staphylococcus simulans LJH13, Enterococcus gallinarum LJH11, Staphylococcus haemolyticus LJH9; 4 clinical methicillin-resistant Staphylococcus aureus (MRSA) shhs-E1, MRSA 16339, MRSA 745524, MRSA 16162. Their antibacterial activities against the […] pathogens Escherichia coli ATCC 13,124 and clinical drug-resistant Klebsiella pneumonia 15580 were also assayed.
(§2) Ampicillin, vancomycin and polymyxin were used as control. The maximum test concentrations for all the compounds were 128 μg/mL.

[1] = tested on: Staphylococcus aureus ATCC 29213; assay: microbe, parasite or virus in culture
Procedure: as §1, §2

[2] = tested on: methicillin-resistant Staphylococcus aureus (MRSA) shhsE1; assay: microbe, parasite or virus in culture
Procedure: as §1, §2

[3] = tested on: Staphylococcus haemolyticus LJH9; assay: microbe, parasite or virus in culture
Procedure: as §1, §2

[4] = tested on: Enterococcus faecalis ATCC 29212; assay: microbe, parasite or virus in culture
Procedure: as §1, §2

[5] = tested on: Enterococcus gallinarum LJH11; assay: microbe, parasite or virus in culture
Procedure: as §1, §2

Bacillus subtilis BS01 = assay: microbe, parasite or virus in culture
Procedure: as §1, §2

Micrococcus luteus ML01 = assay: microbe, parasite or virus in culture
Procedure: as §1, §2

MRSA 745524 = assay: microbe, parasite or virus in culture
Procedure: as §1, §2

[6] = tested on: Staphylococcus simulans LJH13; assay: microbe, parasite or virus in culture
Procedure: as §1, §2

MRSA 16339 = assay: microbe, parasite or virus in culture
Procedure: as §1, §2

Gram-negative pathogens = details: weak activity; summary of Table 1
Procedure: as §1, §2

Gram-positive pathogens = details: for Gram positive antibacterial activity for desotamides (in words) / Gram positive antibacterial activity for wollamides (in words): summary; for Gram positive antibacterial activity for desotamides (in words): Figure 2; for Gram positive antibacterial activity for wollamides (in words): Figure 3
Procedure: as §1, §2

[7] = tested on: Klebsiella pneumoniae 15580
Procedure: as §1, §2

E. coli ATCC 13124 = tested on: E. coli ATCC 13124
Procedure: as §1, §2

[8] = E. coli ATCC 13124, two-fold serial dilution, Mueller-Hinton broth, 96-well plate, CLSI-based, maximum test concentration 128 μg/mL
[9] = clinical drug-resistant Klebsiella pneumoniae 15580, two-fold serial dilution, Mueller-Hinton broth, 96-well plate, CLSI-based, maximum test concentration 128 μg/mL
[10] = clinical MRSA shhsE1, two-fold serial dilution, Mueller-Hinton broth, 96-well plate, CLSI-based, maximum test concentration 128 μg/mL

Compound	MIC (MRSA 16162; 16162)	MIC ([1]; ATCC 29213)	MIC ([2]; methicillin-resistant shhsE1)	MIC [3]	MIC ([4]; ATCC 29212)	MIC [5]	MIC (Bacillus subtilis BS01; BS01)	MIC (Micrococcus luteus ML01; ML01)	MIC (MRSA 745524; 745524)	MIC [6]	MIC (MRSA 16339; 16339)	Gram positive antibacterial activity for desotamides (in words) (Gram-positive pathogens)	MIC [7]; 15580	MIC (E. coli ATCC 13124; [8])	MIC [7, 9]	MIC [2, 10]	Gram positive antibacterial activity for wollamides (in words) (Gram-positive pathogens)	further results
CC[C@H](C)[C@@H]1NC(=O)[C@H](CC(N)=O)NC(=O)[C@@H](CCCNC(=N)N)NC(=O)[C@H](Cc2c[nH]c3ccccc23)NC(=O)[C@H](CC(C)C)NC(=O)[C@@H](CC(C)C)NC1=O [Compound 15, Desotamide A6] (cyclo(I[dL]LW[dR]N))	16 µg/mL (≈ 20.1 µM)	16 µg/mL (≈ 20.1 µM)	8 µg/mL (≈ 10.1 µM)	32 µg/mL (≈ 40.2 µM)	32 µg/mL (≈ 40.2 µM)	128 µg/mL (≈ 161 µM)	8 µg/mL (≈ 10.1 µM)	8 µg/mL (≈ 10.1 µM)	8 µg/mL (≈ 10.1 µM)	8 µg/mL (≈ 10.1 µM)	16 µg/mL (≈ 20.1 µM)	2–4-Fold more active than 1	>128 µg/mL					MIC against the Gram-negative pathogens tested (summary) (Gram-negative pathogens): 64 to 128 µg/mL; MIC values against Gram-positive pathogens (summary over the panel) (Gram-positive pathogens): 8 to 32 µg/mL; fold increase of antibacterial activities compared to desotamide A (1) (Gram-positive pathogens; entire test panel of Gram-positive bacteria): 2–4 fold
polymyxin [reference compound]														16 µg/mL	2 µg/mL			
CC[C@@H](C)[C@@H]1NC(=O)[C@@H](CC(C)C)NC(=O)[C@H](CC(C)C)NC(=O)[C@H](Cc2c[nH]c3ccccc23)NC(=O)CNC(=O)[C@H](CC(N)=O)NC1=O [Compound 1, desotamide A] (cyclo(GWL[dL][aIle]N))	32 µg/mL (≈ 45.9 µM)	32 µg/mL (≈ 45.9 µM)	64 µg/mL (≈ 91.8 µM)	128 µg/mL (≈ 184 µM)	64 µg/mL (≈ 91.8 µM)	64 µg/mL (≈ 91.8 µM)	32 µg/mL (≈ 45.9 µM)	32 µg/mL (≈ 45.9 µM)	8 µg/mL (≈ 11.5 µM)	16 µg/mL (≈ 23 µM)	16 µg/mL (≈ 23 µM)	Moderately active	>128 µg/mL					MIC (E. coli ATCC 13124; ATCC 13124): >128 µg/mL
CC[C@@H](C)[C@@H]1NC(=O)[C@H](CC(N)=O)NC(=O)[C@@H](CCCNC(=N)N)NC(=O)[C@H](Cc2c[nH]c3ccccc23)NC(=O)[C@H](CC(C)C)NC(=O)[C@@H](CC(C)C)NC1=O [Compound 10, Desotamide A1] (cyclo(LW[dR]N[aIle][dL]))	>128 µg/mL	>128 µg/mL	>128 µg/mL	>128 µg/mL	>128 µg/mL	>128 µg/mL	>128 µg/mL	64 µg/mL (≈ 80.4 µM)	>128 µg/mL	>128 µg/mL	>128 µg/mL	Inactive	>128 µg/mL					
CC(C)C[C@@H]1NC(=O)[C@H](Cc2c[nH]c3ccccc23)NC(=O)[C@@H](CCCN)NC(=O)[C@H](CC(N)=O)NC(=O)[C@H](C(C)C)NC(=O)[C@@H](CC(C)C)NC1=O [Compound 7, Wollamide B] (cyclo([dOrn]WL[dL]VN))														128 µg/mL (≈ 173 µM)	>128 µg/mL	32 µg/mL (≈ 43.2 µM)	Moderately active	MIC (MRSA 16162; clinical MRSA 16162, two-fold serial dilution, Mueller-Hinton broth, 96-well plate, CLSI-based, maximum test concentration 128 μg/mL): 64 µg/mL (≈ 86.5 µM); MIC ([1]; Staphylococcus aureus ATCC 29213, two-fold serial dilution, Mueller-Hinton broth, 96-well plate, CLSI-based, maximum test concentration 128 μg/mL): 32 µg/mL (≈ 43.2 µM); MIC ([3]; Staphylococcus haemolyticus LJH9, drug-resistant poultry pathogen, two-fold serial dilution, Mueller-Hinton broth, 96-well plate, CLSI-based, maximum test concentration 128 μg/mL): 64 µg/mL (≈ 86.5 µM); MIC ([4]; Enterococcus faecalis ATCC 29212, two-fold serial dilution, Mueller-Hinton broth, 96-well plate, CLSI-based, maximum test concentration 128 μg/mL): 128 µg/mL (≈ 173 µM); MIC ([5]; Enterococcus gallinarum LJH11, drug-resistant poultry pathogen, two-fold serial dilution, Mueller-Hinton broth, 96-well plate, CLSI-based, maximum test concentration 128 μg/mL): >128 µg/mL; MIC (Bacillus subtilis BS01; Bacillus subtilis BS01, two-fold serial dilution, Mueller-Hinton broth, 96-well plate, CLSI-based, maximum test concentration 128 μg/mL): 32 µg/mL (≈ 43.2 µM); MIC (Micrococcus luteus ML01; Micrococcus luteus ML01, two-fold serial dilution, Mueller-Hinton broth, 96-well plate, CLSI-based, maximum test concentration 128 μg/mL): 16 µg/mL (≈ 21.6 µM); MIC (MRSA 745524; clinical MRSA 745524, two-fold serial dilution, Mueller-Hinton broth, 96-well plate, CLSI-based, maximum test concentration 128 μg/mL): 32 µg/mL (≈ 43.2 µM); MIC ([6]; Staphylococcus simulans LJH13, drug-resistant poultry pathogen, two-fold serial dilution, Mueller-Hinton broth, 96-well plate, CLSI-based, maximum test concentration 128 μg/mL): 16 µg/mL (≈ 21.6 µM); MIC (MRSA 16339; clinical MRSA 16339, two-fold serial dilution, Mueller-Hinton broth, 96-well plate, CLSI-based, maximum test concentration 128 μg/mL): 64 µg/mL (≈ 86.5 µM)
CC(C)C[C@@H]1NC(=O)[C@H](Cc2c[nH]c3ccccc23)NC(=O)[C@@H](CCCNC(=N)N)NC(=O)[C@H](CC(N)=O)NC(=O)[C@H](C(C)C)NC(=O)[C@@H](CC(C)C)NC1=O [Compound 8, Wollamide B1] (cyclo([dR]WL[dL]VN))	16 µg/mL (≈ 20.5 µM)	16 µg/mL (≈ 20.5 µM)		32 µg/mL (≈ 40.9 µM)	32 µg/mL (≈ 40.9 µM)	64 µg/mL (≈ 81.8 µM)	8 µg/mL (≈ 10.2 µM)	8 µg/mL (≈ 10.2 µM)	16 µg/mL (≈ 20.5 µM)	8 µg/mL (≈ 10.2 µM)	16 µg/mL (≈ 20.5 µM)		>128 µg/mL	128 µg/mL (≈ 164 µM)		16 µg/mL (≈ 20.5 µM)	2–4-Fold more active than 7	fold increase of anti-Gram-positive activity compared to wollamide B (7) (Gram-positive pathogens; Gram-positive bacteria): 2–4 folds
